In the first series the test system is multi-drug-resistant (MDR) cells HU-2. As to the kind of experiment: Cytotoxicity toward multi-drug-resistant HU-2 cells. It counts as cell-based. To be noted: nanoformulated complex.
On to `Clc1cc(Cl)c2c(c1)CN1CCN3Cc4cc(Cl)cc(Cl)c4[O][Ti]([O]2)([O]c2c(Cl)cc(Cl)cc2C1)[O]c1c(Cl)cc(Cl)cc1C3` [compound 3], for which the 50% inhibitory concentration (IC50) (as a rule, the concentration that inhibits the measured activity by half) was 800 ± 1000 nM.

Another series deals with OVCAR-3. Description: MTT cytotoxicity assay on OVCAR-3 cells. It counts as cell-based. To be noted: administered without formulations, three days incubation. As for the experimental part: (§1) Cytotoxicity was measured on HT-29 colon and OVCAR ovarian cells obtained from ATCC Inc. using the methylthiazolyldiphenyl-tetrazolium bromide (MTT) assay. Cells (0.6×106) in medium (contains: 1% penicillin/streptomycin antibiotics; 1% L-glutamine; 10% fetal bovine serum (FBS) and 88% medium RPMI-1640, all purchased from Biological Industries Inc.) were seeded into a 96-well plate and allowed to attach for a day. The cells were consequently treated with the reagent tested at 10 different concentrations. Solutions/dispersions of the reagents were prepared either by dissolving 8 mg of the nonformulated reagent in 200 μL of THF or by dispersing 8 mg of formulated reagent in 200 μL of medium, with further diluting to obtain the different concentrations. A total of 20 μL of the resulting system were diluted with 180 μL of medium. Consequently, 10 μL of each final system were added to each well already containing 200 μL of the above solution of cells in the medium to give final concentration of up to 200 mg/L. Control wells were treated with similar amounts of THF or medium. After a standard of 3 days incubation at 37° C. in 5% CO2 atmosphere, MTT (0.1 mg in 20 μL) was added and the cells were incubated for additional 3 hours. The MTT solution was then removed, and the cells were dissolved in 200 μL isopropanol. The absorbance at 550 nm was measured by a Bio-Tek EL-800 microplate reader spectrophotometer. Each measurement was repeated at least 3×3 times, namely, three repeats per plate, all repeated at least 3 times on different days (9 repeats altogether). IC50 values were determined by a non-linear regression of a variable slope (four parameters) model.
In the case of `N.N.[Cl][Pt][Cl]` [Cis-platin, reference compound], the IC50 came out at 8800 ± 2100 nM and the “maximal inhibition OVCAR-3” value came to 91%.
Consider `[O]=[V]12[O]c3ccccc3CNCCN(Cc3ccccc3[O]1)Cc1ccccc1[O]2` [compound 5], for which the 50% inhibitory concentration (IC50) came out at 300 ± 100 nM and the “maximal inhibition OVCAR-3” value stood at 88%.
The matching figures for `Cc1ccc2c(c1)CNCCN1Cc3cc(C)ccc3[O][V](=[O])([O]2)[O]c2ccc(C)cc2C1` [compound 6]: 300 ± 100 nM and 90%.
The like results for `COc1ccc2c(c1)CNCCN1Cc3cc(OC)ccc3[O][V](=[O])([O]2)[O]c2ccc(OC)cc2C1` [compound 8] were, in that order, 600 ± 200 nM and 85%.
The matching figures for `CC(C)(C)Oc1ccc2c(c1)CNCCN1Cc3cc(OC(C)(C)C)ccc3[O][V](=[O])([O]2)[O]c2ccc(OC(C)(C)C)cc2C1` [compound 9]: 1300 nM and 84%.
As for `Cc1cc(C)c2c(c1)CN1Cc3cc(C)cc(C)c3[O][V](=[O])([O]2)[O]c2c(C)cc(C)cc2C1` [compound 50], the midpoint of inhibition, the IC50, lay at 2800 ± 500 nM and the “maximal inhibition OVCAR-3” value was determined as 87%.
The matching figures for `[O]=[V]1[O]c2ccccc2CNCCNCc2ccccc2[O]1` [compound 63]: 4300 ± 1400 nM and 87%.

A further series concerns HT-29 cancer cells. As to the kind of experiment: MTT cytotoxicity assay on HT-29 colon cells. The series is classed as cell-based, human. The conditions noted are these: administered without formulations, three days incubation. As for the experimental part: as §1
(In general: Tetrazolium dyes change colour on reduction, which living cells bring about.)
For `N.N.[Cl][Pt][Cl]` [Cis-platin, reference compound], the IC50 was found to be 12200 ± 2300 nM and the “maximal inhibition HT-29” value worked out at 90%.
Turning to `[O]=[V]12[O]c3ccccc3CNCCN(Cc3ccccc3[O]1)Cc1ccccc1[O]2` [compound 5], the half-inhibitory concentration (IC50) stood at 1900 ± 600 nM and the “maximal inhibition HT-29” value is 97%.
The like results for `Cc1ccc2c(c1)CNCCN1Cc3cc(C)ccc3[O][V](=[O])([O]2)[O]c2ccc(C)cc2C1` [compound 6] were, in that order, 2500 ± 700 nM and 98%.
The matching figures for `[O]=[V]12[O]c3ccc(Cl)cc3CNCCN(Cc3cc(Cl)ccc3[O]1)Cc1cc(Cl)ccc1[O]2` [compound 7]: 3200 nM and 95%.
Turning to `COc1ccc2c(c1)CNCCN1Cc3cc(OC)ccc3[O][V](=[O])([O]2)[O]c2ccc(OC)cc2C1` [compound 8], 700 ± 100 nM corresponded to half-maximal inhibition (IC50) and the “maximal inhibition HT-29” value stood at 94%.
For the compound `CC(C)(C)Oc1ccc2c(c1)CNCCN1Cc3cc(OC(C)(C)C)ccc3[O][V](=[O])([O]2)[O]c2ccc(OC(C)(C)C)cc2C1` [compound 9], inhibition was half-maximal at 2000 ± 400 nM (IC50) and the “maximal inhibition HT-29” value was 99%.
The like results for `Cc1cc(C)c2c(c1)CN1Cc3cc(C)cc(C)c3[O][V](=[O])([O]2)[O]c2c(C)cc(C)cc2C1` [compound 50] were, in that order, 4600 ± 800 nM and 96%.
On to `[O]=[V]1[O]c2ccccc2CNCCNCc2ccccc2[O]1` [compound 63], for which the midpoint of inhibition, the IC50, lay at 5800 ± 300 nM and the “maximal inhibition HT-29” value was found to be 97%.

The series is the same for the next values; noted with them: nanoformulated complex, three days incubation.
`Clc1cc(Cl)c2c(c1)CN1CCN3Cc4cc(Cl)cc(Cl)c4[O][Ti]([O]2)([O]c2c(Cl)cc(Cl)cc2C1)[O]c1c(Cl)cc(Cl)cc1C3` [compound 3] yielded an IC50 of 12000 ± 2000 nM.

The series is the same for the next values; noted with them: non-formulated.
As for `Clc1cc(Cl)c2c(c1)CN1CCN3Cc4cc(Cl)cc(Cl)c4[O][Ti]([O]2)([O]c2c(Cl)cc(Cl)cc2C1)[O]c1c(Cl)cc(Cl)cc1C3` [compound 3], the “cytotoxicity when measured/administered directly on HT-29” value is “inactive”.

System in a further series: not listed separately
As to the kind of experiment: Hydrolysis measurements by 1H NMR / stability in water. It counts as physicochemical. The conditions noted are these: 10% D2O added to [D8]THF solution. Here is the method: Comparative hydrolysis measurements by ^1H NMR were carried by monitoring the integration of selected signals with time following addition of 10% D2O to [D8]THF solution of the complexes. The t1/2 value for isopropoxo hydrolysis for compound 4 was ca. 100 hours, markedly higher than the value previously reported for analogous complexes of two labile ligands obtained under similar conditions (ca. 5 hours).
NMR data were recorded using AMX-400 or AMX-500 MHz Bruker spectrometer. X-ray diffraction data were obtained with a Bruker SMART APEX CCD diffractometer, running the SMART software package. After collection, the raw data frames were integrated by the SAINT software package. The structures were solved and refined using the SHELXTL software package. Hydrolysis studies by NMR were performed using a solution of the complex in [D^8]THF and adding 10% D2O. The results were verified by including p-dinitrobenzene as an internal standard.
Take `Clc1cc(Cl)c2c(c1)CN1CCN3Cc4cc(Cl)cc(Cl)c4[O][Ti]([O]2)([O]c2c(Cl)cc(Cl)cc2C1)[O]c1c(Cl)cc(Cl)cc1C3` [compound 3]: the “hydrolysis observed by 1H NMR” value is “no substantial hydrolysis was observed for over a week”.

System in another series: not listed separately
Description: Particle size by dynamic light scattering. It counts as physicochemical. The conditions noted are these: nanoformulated complex, 0.2 wt % dispersion in water. Here is the method:
The dry powder obtained at the end of the freeze-drying process was dispersed at 0.2% in distilled water. The sample was manually shaken for 15 seconds. Particle size distribution by volume was measured at room temperature by dynamic light scattering using a Nano-ZS Zetasizer (Malvern, UK). A 633 nm wavelength laser beam was used to illuminate the sample and the light scattering was detected at 173° angle by the Non-Invasive Back-Scatter (NIBS) technology. The advantages of the backscatter detection are: (a) Ability to measure particle size at high concentration; (b) Elimination of dust and impurity effect. Size measurements of the dispersion were performed in triplicate.
`Clc1cc(Cl)c2c(c1)CN1CCN3Cc4cc(Cl)cc(Cl)c4[O][Ti]([O]2)([O]c2c(Cl)cc(Cl)cc2C1)[O]c1c(Cl)cc(Cl)cc1C3` [compound 3]: the Mean particle size turned out to be 5.3 ± 0.3 nm.

Another series deals with OVCAR cancer cells. Description: MTT cytotoxicity assay on OVCAR ovarian cells. The series is classed as cell-based. The conditions noted are these: nanoformulated complex, three days incubation. As for the experimental part: as §1, with “After a standard of 3 days incubation at 37° C. in 5% CO2 atmosphere, MTT (0.1 mg in 20 μL) was added and the cells were incubated for additional 3 hours. The MTT solution was then removed, and the cells were dissolved in 200 μL isopropanol.” left out, “Each measurement was repeated at least 3×3 times, namely, three repeats per plate, all repeated at least 3 times on different days (9 repeats altogether).” left out
Consider `Clc1cc(Cl)c2c(c1)CN1CCN3Cc4cc(Cl)cc(Cl)c4[O][Ti]([O]2)([O]c2c(Cl)cc(Cl)cc2C1)[O]c1c(Cl)cc(Cl)cc1C3` [compound 3], for which the IC50 is 14000 ± 4000 nM.

The same series, now with this note: non-formulated, OVCAR-1 cells as printed.
Turning to `Clc1cc(Cl)c2c(c1)CN1CCN3Cc4cc(Cl)cc(Cl)c4[O][Ti]([O]2)([O]c2c(Cl)cc(Cl)cc2C1)[O]c1c(Cl)cc(Cl)cc1C3` [compound 3], the “cytotoxicity when measured directly on OVCAR-1” value was “inactive”.

The values are drawn from US10017533B2, “Cytotoxic titanium and vanadium complexes” (YISSUM RESEARCH DEVELOPMENT COMPANY OF THE HEBREW …, priority 2012, dated 2018).
